Assay results: PubChem BioAssay AID1626 (SRMLSC, 2009)

Test system: M. tuberculosis H37Rv growth inhibition
Test: M. tuberculosis H37Rv growth inhibitors, H37Rv strain (AID 1626)
Conditions: for IC90: measured here: IC90 against H37Rv; for CC50: measured here: Vero cell cytotoxicity

| Compound | IC50 [µM] | IC90 [µM] | CC50 [µM] |
| --- | --- | --- | --- |
| CC(=O)n1cc(N(C(=O)CCl)c2ccccc2)c2ccccc21 | 3.1 | 7.33 | 0.792 |
| Clc1cccc(-c2nc(NCCN3CCOCC3)c3ccccc3n2)c1 | 12.6 | 17.6 | > 40 |
| O=C(Nc1nccs1)c1sc2ccccc2c1Cl | 15.1 | > 100 | > 40 |
| COc1ccc(-c2nnc(NC(=O)c3ccccc3C)o2)cc1 | 0.944 | > 100 | > 40 |
| Cn1c(-c2ccc3c(c2)OCO3)cnc1NCc1cccc(Cl)c1 | 11.4 | 13.1 | > 40 |
| Cn1nc(C(F)(F)F)c2cc(NC(=O)OCC(C)(C)C)sc21 | 13.3 | > 100 |  |
| N#CC(c1ccc(Cl)cc1)c1ccc2c(C(F)(F)F)cc(C(F)(F)F)nc2n1 (stereo not drawn) | 0.571 | 0.691 | 0.904 |
| Cc1sc(N)nc1-c1ccccc1 |  | > 100 |  |
| Cc1ccc(C(=O)CC(=O)c2cc(Cl)ccc2O)cc1 | 3.48 | 4.67 | 20.2 |
| COC(=O)COc1cccc(NC(=O)COc2ccccc2)c1 | 2.72 | 4 |  |
| CC1=Nc2ccccc2/C1=C/c1sc(=N)n(-c2nccs2)c1O | < 0.195 | < 0.195 | 14.3 |
| COc1ccc(OC(=O)CCc2c[nH]c3ccccc23)cc1 | 18.2 | > 100 |  |
| c1ccc(-c2nc(NCCCn3ccnc3)c3oc4ccccc4c3n2)cc1 | 2.81 | 3.16 | > 40 |
| Cc1ccc(NC(=O)CSc2ccc(-c3ccccn3)nn2)cc1 | 1.98 | 2.74 | > 40 |
| COc1ccc(N=C2CCS(=O)(=O)c3sccc32)cc1 | 54.3 | > 100 |  |
| Cn1c(-c2c(N)n(-c3ccccc3)c3nc4ccccc4nc23)nc2ccccc21 | 0.331 | > 100 | > 40 |
| O=C(COc1ccc(Cl)cc1)Nc1ccc2c(c1)CCC2 | 12.6 | > 100 |  |
| Cn1c(-c2c(N)n(CCc3ccccc3)c3nc4ccccc4nc23)nc2ccccc21 | 1.83 | 28.4 | 35.1 |
| CCOC(=O)c1cc(C)nc(Sc2ccc(C)cc2)c1C#N | 12.7 | > 100 | > 40 |
| CC(C)(C)c1cc(NCc2ccccn2)n2ncc(-c3ccc(Cl)cc3)c2n1 | 0.655 | 6.15 | > 40 |
| C=CCOc1ccc(/C=N/O)cc1Cl |  | > 100 |  |

| Compound | IC50 [µM] | IC90 [µM] | CC50 [µM] |
| --- | --- | --- | --- |
| COc1ccc(N=C2C(=O)N3c4c(cccc42)C(C)=CC3(C)C)cc1 |  | > 100 |  |
| COC(=O)c1cccc(NC(=O)NC23CC4CC(CC(C4)C2)C3)c1 | 23.9 | > 100 | > 40 |
| CCOC(=O)CSCC(=O)Nc1c(C(=O)C2CC2)oc2ccccc12 | 5.86 | 9.32 |  |
| O=C(Nc1nc(-c2ccccn2)cs1)C1CCCC1 | 2.54 | 5.83 | > 40 |
| CCOC(=O)CSc1nc(N)c(C#N)c(CC(C)C)c1C#N | 1.44 | 8.77 |  |
| O=C(NCc1cn(-c2ccccc2)nc1-c1ccccc1)c1cc([N+](=O)[O-])cc([N+](=O)[O-])c1 | 0.591 | 0.847 | > 40 |
| CCOC(=O)c1sc2nc(CSc3ccccc3)nc(N3CCCN(C)CC3)c2c1C | 5.79 | 6.53 | 24.8 |
| CCC1CCCCN1C(=O)COC(=O)c1cc2ccccc2cc1O (stereo not drawn) | 1.25 | 4.34 |  |
| O=C(C[n+]1cc(-c2ccc(F)cc2)n2c1CCC2)Nc1nc(-c2ccc(F)cc2)cs1 | 10.5 | 41.1 |  |
| Cc1ccc(NC(=O)CSCC#N)cc1Cl | 47.5 | > 100 |  |
| CN(C)CCCN(C(=O)CCc1ccccc1)c1nc2ccc(Br)cc2s1 | 22.5 | 24.2 | 16.7 |
| CN1CCN(C2=Cc3ccccc3Sc3cc(F)c(Cl)cc32)CC1 | 11.6 | 13.2 | 36.4 |
| CC(=O)/C=C/c1ccc2ccccc2n1 | 5.65 | 6.34 | 16.1 |
| COc1ccc(OCC(=O)Nc2ccc3nc(C)sc3c2)cc1 | 10.7 | > 100 |  |
| COc1ccc(N=Cc2ccc[nH]2)cc1 |  | > 100 |  |
| Cc1ccc(C(=O)CC(SCC(=O)O)c2ccc([N+](=O)[O-])cc2)cc1 (stereo not drawn) | 7.91 | > 100 | 36.8 |
| COc1ccc(NC(=O)NC(C)C2CC3CCC2C3)cc1 (stereo not drawn) | 7.4 | > 100 | > 40 |
| O=C(Nc1nc(-c2ccccn2)cs1)c1ncc(Cl)c(Cl)c1Cl | 1.45 | 5.3 | 31.7 |
| CCOc1ccc(N2C(=O)c3ccc(C(=O)OCC(=O)N(CC)C4CCS(=O)(=O)C4)cc3C2=O)cc1 (stereo not drawn) |  | > 100 |  |
| CCC(C)NC(=O)c1c(N)n(/N=C/c2ccccn2)c2nc3ccccc3nc12 (stereo not drawn) | 5.18 | 7.46 | > 40 |
| CCOC(=O)c1ccc(NC(=O)Nc2ncccc2C)cc1 |  |  | > 40 |

| Compound | IC50 [µM] | IC90 [µM] | CC50 [µM] |
| --- | --- | --- | --- |
| CCOc1ccc(NC(=O)CCN2CCN(c3ccccc3F)CC2)cc1 | 36.3 | > 100 |  |
| O=C(/C=C/c1ccco1)c1ccc(NC(=O)C23CC4CC(CC(C4)C2)C3)cc1 | < 0.195 | > 100 |  |
| Cc1nc(N2CCN(Cc3ccc4c(c3)OCO4)CC2)c2cc(-c3ccccc3)sc2n1 | 5.39 | 6.08 | > 40 |
| COc1cc(/C=N/NC(=Nc2ccc(C)cc2)c2nc3ccccc3s2)ccc1O |  | > 100 | > 40 |
| CCn1ccnc1CN(C)Cc1cn(-c2cc(C)ccc2C)nc1-c1ccccc1 | 5.88 | 10.3 |  |
| Cc1ccccc1C(=O)Nc1nnc(-c2ccc(F)cc2)o1 | 1.11 | 3.78 | 39.1 |
| CCCc1cc(-c2nc(-c3ccc(C)cc3)cs2)ccn1 | 7.61 | 22.2 | > 40 |
| Cc1cc(NC2CCCCC2)nc(NCc2ccccc2)n1 | 10.3 | 13.2 | 18.2 |
| CC1(C)CC(=O)C(C=Nc2ccc3c(c2)OCO3)=C(O)C1 |  | > 100 |  |
| COc1ccc(C(=O)OCCNC(=O)c2c(Cl)nc3ccccn23)cc1 | 5.08 | 15.8 |  |
| CCOC(=O)c1ccc(NC(=O)NS(=O)(=O)c2ccc(C)cc2)cc1 | 7.99 | > 100 |  |
| CCOC(=O)c1sc(NC(=O)CSc2ncn[nH]2)c(C#N)c1C |  |  | > 40 |
| CCOc1ccc(NC(C)c2cc(Cl)ccc2O)cc1 (stereo not drawn) | 10.5 | > 100 |  |
| COc1ccc(-c2nc(Cn3c(SCc4ccc(C)cc4)nc4ccncc43)c(C)o2)cc1OC | 6.52 | > 100 | > 40 |
| COC(=O)CSc1nnc(-c2ccc(OC)cc2OC)o1 | 1.76 | 4.54 |  |
| Cc1[nH]n2c(=O)c3c(nc2c1-c1ccc(Cl)cc1)CCC3 | 13.3 | 31 | 19.6 |
| O=C(c1ccc2c(c1)[nH]c(=S)n1c3ccccc3nc21)N1CCN(c2cccc(Cl)c2)CC1 | 4.39 | 32.3 | 26.5 |
| N#Cc1ccc(/C=C/C(=O)c2ccc3c(c2)OCO3)cc1 |  | > 100 |  |
| Cc1ccc(C(=O)Oc2cccc(NC(=O)c3ccccc3)c2)cc1C | 7.76 | 12.9 |  |
| COc1c(N2CCNC(C)C2)c(F)cc2c(=O)c(C(=O)O)cn(C3CC3)c12 (stereo not drawn) | < 0.195 | < 0.195 |  |
| c1ccc(-c2ccc3c(c2)c2c4n3CCN=C4CCC2)cc1 | 10.7 | 14.9 | 24.7 |

| Compound | IC50 [µM] | IC90 [µM] | CC50 [µM] |
| --- | --- | --- | --- |
| Cc1cc(NC(=O)C2CCCC2)n(-c2nc3ccccc3[nH]2)n1 | 24.6 | > 100 |  |
| OC(CN1CCN(Cc2ccccc2)CC1)Cn1c2ccccc2c2ccccc21 (stereo not drawn) | 16.5 | 22.9 | > 40 |
| CCc1ccc(C(=O)CSC2=C(C#N)C(c3ccco3)C(C(C)=O)=C(C)N2)cc1 (stereo not drawn) | 7.81 | 23.3 | > 40 |
| Cc1cc(NC(=O)CCN2C(=O)C3C4C=CC(C4)C3C2=O)ccc1Br (stereo not drawn) | 35.3 | > 100 |  |
| COc1cc(/C=C/C(=O)c2cccc([N+](=O)[O-])c2)cc(OC)c1OC | 3.77 | 11.2 | 18.5 |
| COC(=O)COc1ccc(-c2ccc(F)cc2)cc1C=O | 5.69 | 9.92 |  |
| FC(F)(F)c1nnc(-c2ccccc2)nc1Sc1ccccc1 | 21.9 | 25.3 | > 40 |
| O=[N+]([O-])c1ccc(O)c(C=Nc2ccc3oc(Cc4ccc(Cl)cc4)nc3c2)c1 | 26.4 | > 100 |  |
| CCCCOC(=O)c1ccc(OC(=O)c2cccnc2)cc1 | 7.04 | > 100 | > 40 |
| CCOC(=O)c1ccc(NC(=O)CCc2nc(-c3ccccc3Cl)no2)cc1 | 0.511 | 57.8 | > 40 |
| COc1ccc(N2CCN(c3nc(NC(C)(C)C)nc(N4CCCCC4)n3)CC2)cc1 | 3.75 | 5.86 | > 40 |
| O=C(C[n+]1cc(-c2ccccc2)n2c1CCC2)N1c2ccccc2Sc2ccccc21 | 22.5 | > 100 |  |
| Cn1c(NCc2ccco2)nc2c1c(=O)n(Cc1ccc(Br)cc1)c(=O)n2C | 99.3 | > 100 | > 40 |
| O=C(/C=C/c1cccs1)Nc1cccc(NC(=O)/C=C/c2cccs2)n1 | 10.4 | > 100 | 28 |
| C=CCn1c(SCc2ccc(C(=O)Nc3nccs3)cc2)nnc1-c1ccc(C)c(Cl)c1 | 6.82 | 17.6 | 32.9 |
| COc1ccc(OCC(O)Cn2c(=N)n(CCN3CCCCC3)c3ccccc32)cc1 (stereo not drawn) | 6.22 | 6.86 | > 40 |
| COc1ccc(-c2cc(O)cc(O)c2)cc1 | 8.79 | > 100 |  |
| COc1ccc(C2CC(=O)N3C(=C2C#N)SCC3(O)c2ccccc2)cc1 (stereo not drawn) | 7 | 12 | > 40 |
| O=S(=O)(c1ccc(Cl)c(Cl)c1)c1snnc1-c1ccccc1 | 2.71 | 5.42 | 3.84 |
| CCOC(=O)CSc1ncc(-c2cccc(Cl)c2)cn1 | 1.35 | 3.11 |  |
